Each structure is given as a SMILES string. Where “and” joins values, the source holds several entries; their conditions need not be identical. Equal entries are not always repeated.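 Method: 48-hour compound exposure of cells in 96-well plates, five concentrations, linear interpolation of endpoints. GI50: concentration for 50% inhibition of growth. At the TGI there is no net growth.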

One experiment has as its system SK-MEL-2 melanoma. In words: growth of human tumour cells (NCI), 48 h.
Take `C[C@@]12CCCc3coc(c31)C(=O)c1cc3c(cc12)C(=O)C=CC3=O`: the GI50 was greater than 1 µM; the TGI is > 1 µM and 29 µM.

As to `C=CCNC(=O)N(CCC)CCCCC(NC(C)=O)C(=O)NCc1ccccc1` (stereo not given), the TGI was greater than 100 µM.

Compound `Nc1ccn(C2(CO)C=C(CO)C(O)C2O)c(=O)n1` (stereo not given) displayed a TGI greater than 25.8 µM.

Turning to `C=C1C[C@]23CCC4C(C)(C)C(=O)CC[C@]4(C)C2C[C@H]1C(O)C3=O` (stereo not given in full), the TGI is greater than 75 µM.

As for `COc1cccc(/C(COc2ccc3c(c2)oc(=O)c2cc(OC)ccc23)=N/O)c1`, the GI50 was 6.62 µM and the TGI is greater than 100 µM.

Take `COc1cc2c(c(OC)n1)[C@]1(O)[C@H](O)[C@H](CN(C)C)[C@@H](c3ccccc3)[C@]1(c1ccc(C#N)cc1)O2`: the GI50 is 0.0319 µM and 0.034 µM; the TGI is 0.318 µM and 0.369 µM.

For the compound `C=CCSS/C=C/CS(=O)CC=C` (stereo not given), the TGI came to 97.6 µM.

Take `Oc1cn(-c2ccc(Cl)cc2)nc1-c1n[nH]c(=S)n1C1CCCCC1`: the GI50 was greater than 52.3 µM and the TGI is greater than 100 µM.

A further experiment has as its system RPMI-8226 leukemia. In words: growth of human tumour cells (NCI), 48 h.
As to `CC1=NN(C(=O)CC(=O)N(C(=O)c2ccccc2Cl)c2ccc(C)cc2)C(=O)C1N=Nc1ccc([N+](=O)[O-])cc1` (stereo not given), the TGI was greater than 70.3 µM.

As for `CCn1c(CO)nn(-c2cc(O[C@@H](C)C(F)(F)F)c(C(=O)Nc3c(F)cccc3Cl)cc2F)c1=O`, the GI50 is less than 0.01 µM and the TGI is greater than 62.2 µM.

In the case of `CC1CCC(=O)C(C(=O)CC2CC(=O)NC(=O)C2)C1` (stereo not given), the TGI is greater than 100 µM.

Take `COc1cccc(-n2c3nc(=O)n(C)c(=O)c-3nc3ccccc32)c1`: the TGI was greater than 100 µM.

`CC(C)(C=O)CC(C#N)/C(=N\NC(N)=O)C(=O)Nc1ccccc1C(N)=O` (stereo not given) came in with a TGI greater than 100 µM.

Compound `Cc1cc(C)c(C2[C@H]3C(=O)N(c4ccc(Cc5ccc(N6C(=O)[C@@H]7ON(c8ccccc8)C(c8c(C)cc(C)cc8C)[C@@H]7C6=O)cc5)cc4)C(=O)[C@H]3ON2c2ccccc2)c(C)c1` (stereo not given in full) yielded a TGI greater than 100 µM.

For `COc1ccc2c(c1)C(C)Cc1c(ncnc1-n1c(C)nc3ccccc31)N2C` (stereo not given), the GI50 is 3.96 µM and the TGI worked out at 24.3 µM.

Consider `Cc1cc(C2CC(O)C(CO)O2)cc2c(=O)[nH]c(N)nc12` (stereo not given), for which the GI50 is greater than 100 µM and the TGI is greater than 100 µM.

In the case of `COc1ccc2[nH]c3c4c(ccc3c2c1)C(=O)C=CC4=O`, the TGI amounted to 10.4 µM.

With `CC12CCCCC1(C)C2Sc1ccccc1` (stereo not given), the TGI came to 40.3 µM.

On to `CCOC(=O)CNC(=O)c1ccccc1Nc1ccnc(C(F)(F)F)c1`, for which the GI50 is 12.7 µM and the TGI came to 35.1 µM.

With `C[C@@]12CCCc3coc(c31)C(=O)c1cc3c(cc12)C(=O)C=CC3=O`, the GI50 was greater than 1 µM; the TGI is > 1 µM and 35 µM.

`C=CCNC(=O)N(CCC)CCCCC(NC(C)=O)C(=O)NCc1ccccc1` (stereo not given) returned a TGI greater than 100 µM.

For the compound `Nc1ccn(C2(CO)C=C(CO)C(O)C2O)c(=O)n1` (stereo not given), the TGI is greater than 25.8 µM.

With `C=C1C[C@]23CCC4C(C)(C)C(=O)CC[C@]4(C)C2C[C@H]1C(O)C3=O` (stereo not given in full), the TGI was greater than 75 µM.

Regarding `COc1cccc(/C(COc2ccc3c(c2)oc(=O)c2cc(OC)ccc23)=N/O)c1`, the GI50 was 4.76 µM and the TGI is greater than 100 µM.

On to `COc1cc2c(c(OC)n1)[C@]1(O)[C@H](O)[C@H](CN(C)C)[C@@H](c3ccccc3)[C@]1(c1ccc(C#N)cc1)O2`, for which the GI50 was 0.0151 µM and < 0.01 µM; the TGI was 0.299 µM and 0.15 µM.

Compound `C=CCSS/C=C/CS(=O)CC=C` (stereo not given) gave a TGI of 48.8 µM.

As for `Oc1cn(-c2ccc(Cl)cc2)nc1-c1n[nH]c(=S)n1C1CCCCC1`, the GI50 is 0.248 µM and the TGI came to 30.9 µM.

The next experiment relates to A498 renal. In words: growth of human tumour cells (NCI), 48 h.
For `CC1=NN(C(=O)CC(=O)N(C(=O)c2ccccc2Cl)c2ccc(C)cc2)C(=O)C1N=Nc1ccc([N+](=O)[O-])cc1` (stereo not given), the TGI is greater than 100 µM.

As for `CCn1c(CO)nn(-c2cc(O[C@@H](C)C(F)(F)F)c(C(=O)Nc3c(F)cccc3Cl)cc2F)c1=O`, the GI50 was 3.84 µM and the TGI was greater than 100 µM.

Regarding `CC1CCC(=O)C(C(=O)CC2CC(=O)NC(=O)C2)C1` (stereo not given), the TGI is greater than 100 µM.

`COc1cccc(-n2c3nc(=O)n(C)c(=O)c-3nc3ccccc32)c1` yielded a TGI greater than 100 µM.

Compound `CC(C)(C=O)CC(C#N)/C(=N\NC(N)=O)C(=O)Nc1ccccc1C(N)=O` (stereo not given) displayed a TGI greater than 100 µM.

Consider `Cc1cc(C)c(C2[C@H]3C(=O)N(c4ccc(Cc5ccc(N6C(=O)[C@@H]7ON(c8ccccc8)C(c8c(C)cc(C)cc8C)[C@@H]7C6=O)cc5)cc4)C(=O)[C@H]3ON2c2ccccc2)c(C)c1` (stereo not given in full), for which the TGI was greater than 100 µM.

For the compound `COc1ccc2c(c1)C(C)Cc1c(ncnc1-n1c(C)nc3ccccc31)N2C` (stereo not given), the GI50 was 2.15 µM and the TGI was found to be 9.03 µM.

As to `Cc1cc(C2CC(O)C(CO)O2)cc2c(=O)[nH]c(N)nc12` (stereo not given), the GI50 is greater than 100 µM and the TGI is greater than 100 µM.

In the case of `COc1ccc2[nH]c3c4c(ccc3c2c1)C(=O)C=CC4=O`, the TGI came to 48.4 µM.

Turning to `CC12CCCCC1(C)C2Sc1ccccc1` (stereo not given), the TGI came to 98.2 µM.

`CCOC(=O)CNC(=O)c1ccccc1Nc1ccnc(C(F)(F)F)c1`: the GI50 was 64 µM and the TGI is greater than 100 µM.

Consider `C[C@@]12CCCc3coc(c31)C(=O)c1cc3c(cc12)C(=O)C=CC3=O`, for which the TGI was greater than 100 µM.

In turn, `C=CCNC(=O)N(CCC)CCCCC(NC(C)=O)C(=O)NCc1ccccc1` (stereo not given) showed a TGI greater than 100 µM.

For the compound `Nc1ccn(C2(CO)C=C(CO)C(O)C2O)c(=O)n1` (stereo not given), the TGI is greater than 25.8 µM.

On to `C=C1C[C@]23CCC4C(C)(C)C(=O)CC[C@]4(C)C2C[C@H]1C(O)C3=O` (stereo not given in full), for which the TGI was greater than 75 µM.

On to `COc1cccc(/C(COc2ccc3c(c2)oc(=O)c2cc(OC)ccc23)=N/O)c1`, for which the GI50 was 3.02 µM and the TGI is 25.8 µM.

Take `COc1cc2c(c(OC)n1)[C@]1(O)[C@H](O)[C@H](CN(C)C)[C@@H](c3ccccc3)[C@]1(c1ccc(C#N)cc1)O2`: the GI50 is 0.0192 µM and 0.0201 µM; the TGI was 0.0518 µM and 0.0773 µM.

On to `C=CCSS/C=C/CS(=O)CC=C` (stereo not given), for which the TGI was greater than 100 µM.

`Oc1cn(-c2ccc(Cl)cc2)nc1-c1n[nH]c(=S)n1C1CCCCC1`: the GI50 was 0.365 µM and the TGI was found to be 9.44 µM.

Values taken from PubChem BioAssay (NCI).
